Laboratory results taken from patent US20090203700A1, “Azolylmethyloxiranes, Their Use for Controlling Phytopathogenic Fungi, and Compositions Comprising Them” (BASF SE, priority 2006, published 2009).

Columns and labels:
[1] = test system: Puccinia recondita; assay: Protective activity against Puccinia recondita on wheat (brown rust of wheat) (Puccrt P1); format: in vivo; conditions: 250 ppm active compound, sprayed to runoff on potted wheat seedlings, inoculated next day; untreated plants 90% infected
Protocol: The active compounds were prepared separately or jointly as a stock solution comprising 25 mg of active compound which was made up to 10 ml using a mixture of acetone and/or DMSO and the emulsifier Wettol EM 31 (wetting agent having emulsifying and dispersing action based on ethoxylated alkylphenols) in a volume ratio of solvent/emulsifier of 99:1. The mixture was then made up to 100 ml with water. This stock solution was diluted with the solvent/emulsifier/water mixture described to give the concentration of active compound stated below. Leaves of potted wheat seedlings were sprayed to runoff point with an aqueous suspension having the active compound concentration stated below. The next day, the treated plants were inoculated with a spore suspension of brown rust of wheat (Puccinia recondita). The plants were then placed in a chamber with high atmospheric humidity (90 to 95%) at 20 to 22° C. for 24 hours. During this time, the spores germinated and the germ tubes penetrated into the leaf tissue. The next day, the test plants were returned to the greenhouse and cultivated at temperatures between 20 and 22° C. and at 65 to 70% relative atmospheric humidity for a further 7 days. The extent of the rust fungus development on the leaves was then determined visually.

[2] = test system: Pyrenophora teres; assay: Activity against net blotch of barley caused by Pyrenophora teres, 1 day protective application (Pyrnte P1); format: in vivo, Pyrenophora [syn. Drechslera] teres on barley; conditions: 250 ppm active compound, sprayed to runoff on potted barley seedlings, inoculated after 24 hours, assessed after 6 days; untreated plants 90% infected
Protocol: The active compounds were prepared separately or jointly as a stock solution comprising 25 mg of active compound which was made up to 10 ml using a mixture of acetone and/or DMSO and the emulsifier Wettol EM 31 (wetting agent having emulsifying and dispersing action based on ethoxylated alkylphenols) in a volume ratio of solvent/emulsifier of 99:1. The mixture was then made up to 100 ml with water. This stock solution was diluted with the solvent/emulsifier/water mixture described to give the concentration of active compound stated below. Leaves of potted barley seedlings were sprayed to runoff point with an aqueous suspension having the active compound concentration stated below. 24 hours after the spray coating had dried on, the test plants were inoculated with an aqueous spore suspension of Pyrenophora [syn. Drechslera] teres, the net blotch pathogen. The test plants were then placed in a greenhouse at temperatures between 20 and 24° C. and at 95 to 100% relative atmospheric humidity. After 6 days, the extent of the development of the disease was determined visually in % infection of the entire leaf area.

## Fc1ccc([C@@]2(Cn3cncn3)O[C@@H]2c2cccnc2Cl)cc1 (racemic) [3-{(2RS,3SR)-3-[(1H-1,2,4-triazol-1-yl)methyl]-3-[4-fluorophenyl]oxiran-2-yl}-2-chloropyridine]
[1]
  infection (extent of rust fungus development on the leaves, determined visually): not more than 10%
[2]
  infection (% infection of the entire leaf area, determined visually): not more than 20%
